# From PubChem BioAssay (NCI)
#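 Briefly, cells in 96-well plates were exposed to five compound concentrations for 48 h, and endpoints were estimated by linear interpolation. Abbreviation: GI50, concentration required for 50% inhibition of growth. TGI denotes the concentration required for complete inhibition of growth.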
# How the values were obtained:
# Test in all cases: NCI tumour cell line growth inhibition, 48 h
# DU-145 prostate = tested on: DU-145 prostate
# OVCAR-4 ovarian = tested on: OVCAR-4 ovarian
# NCI-H522 lung = tested on: NCI-H522 lung
# SNB-19 CNS = tested on: SNB-19 CNS
# ACHN renal = tested on: ACHN renal
# HT29 colon = tested on: HT29 colon
# NCI-H226 lung = tested on: NCI-H226 lung
# RPMI-8226 leukemia = tested on: RPMI-8226 leukemia
# U251 CNS = tested on: U251 CNS
# EKVX NSCLC = tested on: EKVX NSCLC
# A498 renal = tested on: A498 renal
# LOX IMVI melanoma = tested on: LOX IMVI melanoma
# SK-MEL-2 melanoma = tested on: SK-MEL-2 melanoma
# UO-31 renal = tested on: UO-31 renal
# HOP-92 NSCLC = tested on: HOP-92 NSCLC
# KM12 colon = tested on: KM12 colon
# HS 578T breast = tested on: HS 578T breast
# SF-268 CNS = tested on: SF-268 CNS
# SR leukemia = tested on: SR leukemia
# SK-MEL-28 melanoma = tested on: SK-MEL-28 melanoma
# HCT-116 colon = tested on: HCT-116 colon
# RXF 393 renal = tested on: RXF 393 renal
# SW-620 colon = tested on: SW-620 colon
# IGROV1 ovarian = tested on: IGROV1 ovarian
# PC-3 prostate = tested on: PC-3 prostate
# SF-539 CNS = tested on: SF-539 CNS
# M14 melanoma = tested on: M14 melanoma
# K-562 leukemia = tested on: K-562 leukemia
# HOP-62 NSCLC = tested on: HOP-62 NSCLC
# MDA-MB-231 breast = tested on: MDA-MB-231 breast
# MDA-MB-435 = tested on: MDA-MB-435
# A549 NSCLC = tested on: A549 NSCLC
# MCF7 breast = tested on: MCF7 breast
# MOLT-4 leukemia = tested on: MOLT-4 leukemia
# COLO 205 colon = tested on: COLO 205 colon
# SNB-75 CNS = tested on: SNB-75 CNS
# TK-10 renal = tested on: TK-10 renal
# NCI-H460 lung = tested on: NCI-H460 lung
# CAKI-1 renal = tested on: CAKI-1 renal
# SF-295 CNS = tested on: SF-295 CNS
# UACC-62 melanoma = tested on: UACC-62 melanoma
# SK-MEL-5 melanoma = tested on: SK-MEL-5 melanoma
# T-47D breast = tested on: T-47D breast
# SK-OV-3 ovarian = tested on: SK-OV-3 ovarian
# SN12C renal = tested on: SN12C renal
# OVCAR-3 ovarian = tested on: OVCAR-3 ovarian
# OVCAR-8 ovarian = tested on: OVCAR-8 ovarian
# HL-60(TB) leukemia = tested on: HL-60(TB) leukemia
# 786-0 renal = tested on: 786-0 renal
# HCT-15 colon = tested on: HCT-15 colon
# CCRF-CEM leukemia = tested on: CCRF-CEM leukemia
# UACC-257 melanoma = tested on: UACC-257 melanoma
# BT-549 breast = tested on: BT-549 breast
# NCI/ADR-RES ovarian = tested on: NCI/ADR-RES ovarian
# HCC-2998 colon = tested on: HCC-2998 colon
# NCI-H23 lung = tested on: NCI-H23 lung
# OVCAR-5 ovarian = tested on: OVCAR-5 ovarian
# MALME-3M melanoma = tested on: MALME-3M melanoma
structure (smiles),measurement,setting,value
O=C(NCc1ccc(Cl)cc1Cl)c1ccc(NC2=C(Cl)C(=O)N(Cc3ccccc3)C2=O)cc1,GI50,DU-145 prostate,39.9 µM
same,TGI,DU-145 prostate,> 100 µM
same,GI50,OVCAR-4 ovarian,18.5 µM
same,TGI,OVCAR-4 ovarian,40.3 µM
same,GI50,NCI-H522 lung,24.6 µM
same,TGI,NCI-H522 lung,> 100 µM
same,GI50,SNB-19 CNS,44.1 µM
same,TGI,SNB-19 CNS,> 100 µM
same,GI50,ACHN renal,20.8 µM
same,TGI,ACHN renal,48.1 µM
same,GI50,HT29 colon,54.3 µM
same,TGI,HT29 colon,> 100 µM
same,GI50,NCI-H226 lung,26.8 µM
same,TGI,NCI-H226 lung,> 100 µM
same,GI50,RPMI-8226 leukemia,4.45 µM
same,TGI,RPMI-8226 leukemia,44.5 µM
same,GI50,U251 CNS,15.7 µM
same,TGI,U251 CNS,34.2 µM
same,GI50,EKVX NSCLC,36.4 µM
same,TGI,EKVX NSCLC,> 100 µM
same,GI50,A498 renal,28.1 µM
same,TGI,A498 renal,56.8 µM
same,GI50,LOX IMVI melanoma,7.02 µM
same,TGI,LOX IMVI melanoma,> 100 µM
same,GI50,SK-MEL-2 melanoma,78.8 µM
same,TGI,SK-MEL-2 melanoma,> 100 µM
same,GI50,UO-31 renal,3.41 µM
same,TGI,UO-31 renal,> 100 µM
same,GI50,HOP-92 NSCLC,10.6 µM
same,TGI,HOP-92 NSCLC,27.8 µM
same,GI50,KM12 colon,38.4 µM
same,TGI,KM12 colon,> 100 µM
same,GI50,HS 578T breast,23.4 µM
same,TGI,HS 578T breast,52.7 µM
same,GI50,SF-268 CNS,18.9 µM
same,TGI,SF-268 CNS,49.1 µM
same,GI50,SR leukemia,0.734 µM
same,TGI,SR leukemia,2.55 µM
same,GI50,SK-MEL-28 melanoma,41.6 µM
same,TGI,SK-MEL-28 melanoma,> 100 µM
same,GI50,HCT-116 colon,53.5 µM
same,TGI,HCT-116 colon,> 100 µM
same,GI50,RXF 393 renal,18.7 µM
same,TGI,RXF 393 renal,52.6 µM
same,GI50,SW-620 colon,26.9 µM
same,TGI,SW-620 colon,> 100 µM
same,GI50,IGROV1 ovarian,15.8 µM
same,TGI,IGROV1 ovarian,> 100 µM
same,GI50,PC-3 prostate,14.3 µM
same,TGI,PC-3 prostate,31.9 µM
same,GI50,SF-539 CNS,21.3 µM
same,TGI,SF-539 CNS,39.1 µM
same,GI50,M14 melanoma,58.7 µM
same,TGI,M14 melanoma,> 100 µM
same,GI50,K-562 leukemia,9.98 µM
same,TGI,K-562 leukemia,30.9 µM
same,GI50,HOP-62 NSCLC,36.3 µM
same,TGI,HOP-62 NSCLC,> 100 µM
same,GI50,MDA-MB-231 breast,21.1 µM
same,TGI,MDA-MB-231 breast,55.9 µM
same,GI50,MDA-MB-435,33.4 µM
same,TGI,MDA-MB-435,> 100 µM
same,GI50,A549 NSCLC,36 µM
same,TGI,A549 NSCLC,> 100 µM
same,GI50,MCF7 breast,11.9 µM
same,TGI,MCF7 breast,48.9 µM
same,GI50,MOLT-4 leukemia,7.17 µM
same,TGI,MOLT-4 leukemia,23.9 µM
same,GI50,COLO 205 colon,23.3 µM
same,TGI,COLO 205 colon,66.5 µM
same,GI50,SNB-75 CNS,17.8 µM
same,TGI,SNB-75 CNS,34.2 µM
same,GI50,TK-10 renal,28.7 µM
same,TGI,TK-10 renal,91.4 µM
same,GI50,NCI-H460 lung,17.8 µM
same,TGI,NCI-H460 lung,47 µM
same,GI50,CAKI-1 renal,18.2 µM
same,TGI,CAKI-1 renal,52.4 µM
same,GI50,SF-295 CNS,32.8 µM
same,TGI,SF-295 CNS,> 100 µM
same,GI50,UACC-62 melanoma,18.4 µM
same,TGI,UACC-62 melanoma,39.8 µM
same,GI50,SK-MEL-5 melanoma,24 µM
same,TGI,SK-MEL-5 melanoma,66.7 µM
same,GI50,T-47D breast,51.3 µM
same,TGI,T-47D breast,> 100 µM
same,GI50,SK-OV-3 ovarian,57.5 µM
same,TGI,SK-OV-3 ovarian,> 100 µM
same,GI50,SN12C renal,26.7 µM
same,TGI,SN12C renal,75.5 µM
same,GI50,OVCAR-3 ovarian,31.9 µM
same,TGI,OVCAR-3 ovarian,> 100 µM
same,GI50,OVCAR-8 ovarian,12 µM
same,TGI,OVCAR-8 ovarian,26.5 µM
same,GI50,HL-60(TB) leukemia,14.8 µM
same,TGI,HL-60(TB) leukemia,60.8 µM
same,GI50,786-0 renal,30.1 µM
same,TGI,786-0 renal,> 100 µM
same,GI50,HCT-15 colon,32.4 µM
same,TGI,HCT-15 colon,> 100 µM
same,GI50,CCRF-CEM leukemia,1.41 µM
same,TGI,CCRF-CEM leukemia,7.65 µM
same,GI50,UACC-257 melanoma,61 µM
same,TGI,UACC-257 melanoma,> 100 µM
same,GI50,BT-549 breast,20.3 µM
same,TGI,BT-549 breast,42 µM
CCOC(=O)c1sc2nc(SC)nc3c2c1NCN3C1CC1,TGI,DU-145 prostate,> 100 µM
same,TGI,OVCAR-4 ovarian,> 100 µM
same,TGI,SNB-19 CNS,> 100 µM
same,TGI,ACHN renal,> 100 µM
same,TGI,HT29 colon,> 100 µM
same,TGI,NCI-H226 lung,> 100 µM
same,TGI,RPMI-8226 leukemia,> 100 µM
same,TGI,NCI/ADR-RES ovarian,> 100 µM
same,TGI,U251 CNS,> 100 µM
same,TGI,HCC-2998 colon,> 100 µM
same,TGI,A498 renal,> 100 µM
same,TGI,LOX IMVI melanoma,> 100 µM
same,TGI,SK-MEL-2 melanoma,> 100 µM
same,TGI,UO-31 renal,> 100 µM
same,TGI,HOP-92 NSCLC,> 100 µM
same,TGI,KM12 colon,> 100 µM
same,TGI,NCI-H23 lung,> 100 µM
same,TGI,HS 578T breast,> 100 µM
same,TGI,OVCAR-5 ovarian,> 100 µM
same,TGI,SF-268 CNS,> 100 µM
same,TGI,SK-MEL-28 melanoma,> 100 µM
same,TGI,HCT-116 colon,> 100 µM
same,TGI,RXF 393 renal,> 100 µM
same,TGI,IGROV1 ovarian,> 100 µM
same,TGI,PC-3 prostate,> 100 µM
same,TGI,M14 melanoma,> 100 µM
same,TGI,HOP-62 NSCLC,> 100 µM
same,TGI,MDA-MB-231 breast,> 100 µM
same,TGI,MDA-MB-435,> 100 µM
same,TGI,A549 NSCLC,> 100 µM
same,TGI,COLO 205 colon,> 100 µM
same,TGI,SNB-75 CNS,> 100 µM
same,TGI,TK-10 renal,> 100 µM
same,TGI,NCI-H460 lung,> 100 µM
same,TGI,CAKI-1 renal,> 100 µM
same,TGI,SF-295 CNS,> 100 µM
same,TGI,UACC-62 melanoma,> 100 µM
same,TGI,SK-MEL-5 melanoma,> 100 µM
same,TGI,T-47D breast,> 100 µM
same,TGI,SK-OV-3 ovarian,> 100 µM
same,TGI,SN12C renal,> 100 µM
same,TGI,OVCAR-3 ovarian,> 100 µM
same,TGI,OVCAR-8 ovarian,> 100 µM
same,TGI,786-0 renal,> 100 µM
same,TGI,HCT-15 colon,> 100 µM
same,TGI,MALME-3M melanoma,> 100 µM
same,TGI,CCRF-CEM leukemia,> 100 µM
same,TGI,UACC-257 melanoma,> 100 µM
same,TGI,BT-549 breast,> 100 µM
